Consider 12 compounds from ChEMBL document CHEMBL5291721, “A preclinical secondary pharmacology resource illuminates target-adverse drug reaction associations of marketed drugs” (Nat Commun, 2023).

The target in test [1] is T1, Thromboxane A2 receptor (Homo sapiens, UniProt P21731).
T1 sequence (P21731 whole entry): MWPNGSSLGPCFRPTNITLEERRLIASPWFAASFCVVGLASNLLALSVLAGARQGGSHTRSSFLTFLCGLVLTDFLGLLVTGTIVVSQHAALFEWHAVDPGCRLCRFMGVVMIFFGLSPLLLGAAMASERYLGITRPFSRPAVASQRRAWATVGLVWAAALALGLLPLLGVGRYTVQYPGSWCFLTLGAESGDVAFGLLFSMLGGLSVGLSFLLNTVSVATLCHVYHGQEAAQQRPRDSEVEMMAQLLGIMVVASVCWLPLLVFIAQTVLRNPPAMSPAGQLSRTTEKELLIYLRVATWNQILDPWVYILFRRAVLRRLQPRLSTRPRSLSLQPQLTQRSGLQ

Test [2] deals with T2, Equilibrative nucleoside transporter 1 (Homo sapiens, UniProt Q99808).
T2 sequence (Q99808 whole entry): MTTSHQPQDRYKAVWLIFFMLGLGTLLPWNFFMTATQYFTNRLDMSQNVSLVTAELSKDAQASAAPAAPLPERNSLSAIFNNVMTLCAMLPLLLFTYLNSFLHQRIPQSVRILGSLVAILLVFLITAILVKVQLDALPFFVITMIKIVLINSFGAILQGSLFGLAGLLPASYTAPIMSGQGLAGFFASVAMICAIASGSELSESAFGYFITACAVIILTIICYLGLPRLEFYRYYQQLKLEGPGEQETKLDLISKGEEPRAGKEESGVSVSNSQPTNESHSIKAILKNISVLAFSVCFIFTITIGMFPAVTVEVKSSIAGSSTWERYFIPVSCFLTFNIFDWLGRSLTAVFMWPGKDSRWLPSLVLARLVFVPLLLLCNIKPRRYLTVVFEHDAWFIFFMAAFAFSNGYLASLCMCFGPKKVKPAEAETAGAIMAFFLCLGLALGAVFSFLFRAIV

Test [3] concerns the target T3, Alpha-2A adrenergic receptor (Homo sapiens, UniProt P08913).
T3 sequence (P08913 whole entry): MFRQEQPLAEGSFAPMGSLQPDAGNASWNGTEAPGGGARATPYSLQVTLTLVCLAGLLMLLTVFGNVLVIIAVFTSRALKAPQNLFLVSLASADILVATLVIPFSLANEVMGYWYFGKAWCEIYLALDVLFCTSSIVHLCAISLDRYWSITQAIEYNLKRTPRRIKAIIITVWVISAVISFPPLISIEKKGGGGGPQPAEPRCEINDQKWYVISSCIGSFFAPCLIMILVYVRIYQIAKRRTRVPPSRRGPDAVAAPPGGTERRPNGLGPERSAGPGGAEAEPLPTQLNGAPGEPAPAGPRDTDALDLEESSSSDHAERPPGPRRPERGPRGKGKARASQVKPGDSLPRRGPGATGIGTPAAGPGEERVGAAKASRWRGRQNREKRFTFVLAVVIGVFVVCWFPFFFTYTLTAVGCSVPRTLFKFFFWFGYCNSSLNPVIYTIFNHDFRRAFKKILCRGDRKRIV
Format: functional, cell-based.

The target in test [4] is Voltage-gated inwardly rectifying potassium channel KCNH2 (Homo sapiens, UniProt Q12809). It is filed as functional.
Voltage-gated inwardly rectifying potassium channel KCNH2, sequence (Q12809 whole entry): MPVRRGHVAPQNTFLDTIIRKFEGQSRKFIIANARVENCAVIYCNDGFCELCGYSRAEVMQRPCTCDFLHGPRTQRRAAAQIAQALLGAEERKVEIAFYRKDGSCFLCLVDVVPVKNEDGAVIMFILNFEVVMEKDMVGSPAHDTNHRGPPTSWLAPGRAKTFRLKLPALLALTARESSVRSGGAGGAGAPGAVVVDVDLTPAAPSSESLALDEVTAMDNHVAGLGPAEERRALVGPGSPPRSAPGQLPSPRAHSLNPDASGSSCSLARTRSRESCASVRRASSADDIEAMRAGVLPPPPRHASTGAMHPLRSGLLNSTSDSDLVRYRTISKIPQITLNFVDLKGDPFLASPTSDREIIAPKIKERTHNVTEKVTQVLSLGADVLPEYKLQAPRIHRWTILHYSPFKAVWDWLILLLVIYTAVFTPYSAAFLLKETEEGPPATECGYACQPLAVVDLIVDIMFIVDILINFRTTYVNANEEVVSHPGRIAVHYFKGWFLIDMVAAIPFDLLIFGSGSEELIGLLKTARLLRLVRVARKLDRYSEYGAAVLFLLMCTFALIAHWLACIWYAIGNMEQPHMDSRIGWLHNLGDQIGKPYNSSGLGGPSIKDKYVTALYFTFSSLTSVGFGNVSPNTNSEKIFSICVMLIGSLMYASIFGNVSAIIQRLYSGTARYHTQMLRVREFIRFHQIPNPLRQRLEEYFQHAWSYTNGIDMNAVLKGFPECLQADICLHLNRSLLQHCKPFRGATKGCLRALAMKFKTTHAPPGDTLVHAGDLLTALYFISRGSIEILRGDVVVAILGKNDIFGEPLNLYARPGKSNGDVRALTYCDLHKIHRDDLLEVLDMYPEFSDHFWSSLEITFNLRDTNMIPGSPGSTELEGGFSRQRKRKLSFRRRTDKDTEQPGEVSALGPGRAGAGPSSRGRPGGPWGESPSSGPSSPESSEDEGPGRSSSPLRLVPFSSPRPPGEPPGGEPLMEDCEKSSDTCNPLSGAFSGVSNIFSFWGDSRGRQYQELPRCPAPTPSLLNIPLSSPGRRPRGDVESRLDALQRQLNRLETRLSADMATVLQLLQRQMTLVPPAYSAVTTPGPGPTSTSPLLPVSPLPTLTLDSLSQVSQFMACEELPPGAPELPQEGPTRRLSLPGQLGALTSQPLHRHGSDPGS
The target of test [5] is T4, Cholecystokinin receptor type A (Homo sapiens, UniProt P32238).
T4 sequence (P32238 whole entry): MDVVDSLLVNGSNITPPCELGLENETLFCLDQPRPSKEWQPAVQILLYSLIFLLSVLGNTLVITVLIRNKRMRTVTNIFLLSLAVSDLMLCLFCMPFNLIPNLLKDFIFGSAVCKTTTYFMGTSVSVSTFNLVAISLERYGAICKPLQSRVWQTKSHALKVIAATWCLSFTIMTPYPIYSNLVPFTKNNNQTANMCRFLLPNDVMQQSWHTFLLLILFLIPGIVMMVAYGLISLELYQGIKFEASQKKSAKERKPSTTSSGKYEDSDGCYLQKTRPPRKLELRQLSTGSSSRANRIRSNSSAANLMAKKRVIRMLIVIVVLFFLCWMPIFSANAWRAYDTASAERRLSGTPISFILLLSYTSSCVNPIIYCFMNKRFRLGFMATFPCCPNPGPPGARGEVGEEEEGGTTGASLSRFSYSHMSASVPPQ

The target of test [6] is T5, Amine oxidase [flavin-containing] A (Homo sapiens, UniProt P21397).
T5 sequence (P21397 whole entry): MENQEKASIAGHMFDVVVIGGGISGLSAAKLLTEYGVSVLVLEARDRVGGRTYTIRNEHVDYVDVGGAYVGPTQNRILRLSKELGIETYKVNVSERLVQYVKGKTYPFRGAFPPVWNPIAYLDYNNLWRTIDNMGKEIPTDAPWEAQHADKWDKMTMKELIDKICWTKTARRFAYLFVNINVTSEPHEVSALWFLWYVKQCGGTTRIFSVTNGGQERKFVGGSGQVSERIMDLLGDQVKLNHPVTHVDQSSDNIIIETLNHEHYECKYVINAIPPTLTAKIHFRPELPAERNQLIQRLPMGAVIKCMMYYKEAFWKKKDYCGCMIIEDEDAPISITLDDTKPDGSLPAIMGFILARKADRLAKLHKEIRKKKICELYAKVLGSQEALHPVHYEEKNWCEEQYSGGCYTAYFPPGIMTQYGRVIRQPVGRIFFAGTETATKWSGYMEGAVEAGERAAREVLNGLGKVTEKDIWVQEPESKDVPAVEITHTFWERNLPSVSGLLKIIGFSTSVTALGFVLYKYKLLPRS
Format: functional.

The target of test [7] is Sodium-dependent dopamine transporter (Homo sapiens, UniProt Q01959).
Sodium-dependent dopamine transporter, sequence (Q01959 whole entry): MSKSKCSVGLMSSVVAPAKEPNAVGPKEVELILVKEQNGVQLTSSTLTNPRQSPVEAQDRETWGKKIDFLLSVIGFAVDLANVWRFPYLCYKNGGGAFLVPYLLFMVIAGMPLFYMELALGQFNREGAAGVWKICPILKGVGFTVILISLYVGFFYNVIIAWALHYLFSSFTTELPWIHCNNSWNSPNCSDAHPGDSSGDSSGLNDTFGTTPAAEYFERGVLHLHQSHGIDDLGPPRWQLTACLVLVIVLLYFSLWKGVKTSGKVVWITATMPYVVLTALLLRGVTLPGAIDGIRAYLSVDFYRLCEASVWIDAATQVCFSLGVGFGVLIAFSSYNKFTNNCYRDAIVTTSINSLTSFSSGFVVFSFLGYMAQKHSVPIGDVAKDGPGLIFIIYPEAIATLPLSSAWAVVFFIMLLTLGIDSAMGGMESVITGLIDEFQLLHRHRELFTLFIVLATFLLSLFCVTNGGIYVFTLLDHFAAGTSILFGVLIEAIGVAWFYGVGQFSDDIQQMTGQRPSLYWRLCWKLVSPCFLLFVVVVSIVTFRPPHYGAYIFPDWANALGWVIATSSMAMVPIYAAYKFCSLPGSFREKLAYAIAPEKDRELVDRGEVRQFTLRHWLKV
The target in test [8] is Melanocortin receptor 3 (Homo sapiens, UniProt P41968).
Melanocortin receptor 3, sequence (P41968 whole entry): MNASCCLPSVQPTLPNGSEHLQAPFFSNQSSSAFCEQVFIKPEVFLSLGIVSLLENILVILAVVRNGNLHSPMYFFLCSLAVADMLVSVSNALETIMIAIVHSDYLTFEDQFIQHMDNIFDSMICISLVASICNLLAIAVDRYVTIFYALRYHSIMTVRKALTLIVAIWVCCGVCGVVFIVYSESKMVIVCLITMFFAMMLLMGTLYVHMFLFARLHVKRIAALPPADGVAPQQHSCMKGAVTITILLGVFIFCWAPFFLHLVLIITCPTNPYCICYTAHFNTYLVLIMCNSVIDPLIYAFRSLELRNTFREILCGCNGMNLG
Test [9] concerns the target T6, 5-hydroxytryptamine receptor 1A (Homo sapiens, UniProt P08908).
T6 sequence (P08908 whole entry): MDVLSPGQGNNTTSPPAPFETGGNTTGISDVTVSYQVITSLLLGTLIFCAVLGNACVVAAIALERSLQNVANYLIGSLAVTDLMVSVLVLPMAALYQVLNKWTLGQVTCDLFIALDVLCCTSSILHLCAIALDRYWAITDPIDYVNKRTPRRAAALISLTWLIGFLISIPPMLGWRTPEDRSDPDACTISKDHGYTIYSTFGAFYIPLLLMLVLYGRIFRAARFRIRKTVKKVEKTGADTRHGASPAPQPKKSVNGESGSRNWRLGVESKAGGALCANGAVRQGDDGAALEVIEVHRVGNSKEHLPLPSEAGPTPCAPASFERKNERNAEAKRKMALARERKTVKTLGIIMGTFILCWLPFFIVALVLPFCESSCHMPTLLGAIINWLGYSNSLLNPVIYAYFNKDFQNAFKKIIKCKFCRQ
Format: functional, cell-based.

Test [10] concerns the target D(1A) dopamine receptor (Homo sapiens, UniProt P21728). Format: functional, cell-based.

Each structure is given as a SMILES string.
Further: assay procedure not described here.

D(1A) dopamine receptor, sequence (P21728 whole entry): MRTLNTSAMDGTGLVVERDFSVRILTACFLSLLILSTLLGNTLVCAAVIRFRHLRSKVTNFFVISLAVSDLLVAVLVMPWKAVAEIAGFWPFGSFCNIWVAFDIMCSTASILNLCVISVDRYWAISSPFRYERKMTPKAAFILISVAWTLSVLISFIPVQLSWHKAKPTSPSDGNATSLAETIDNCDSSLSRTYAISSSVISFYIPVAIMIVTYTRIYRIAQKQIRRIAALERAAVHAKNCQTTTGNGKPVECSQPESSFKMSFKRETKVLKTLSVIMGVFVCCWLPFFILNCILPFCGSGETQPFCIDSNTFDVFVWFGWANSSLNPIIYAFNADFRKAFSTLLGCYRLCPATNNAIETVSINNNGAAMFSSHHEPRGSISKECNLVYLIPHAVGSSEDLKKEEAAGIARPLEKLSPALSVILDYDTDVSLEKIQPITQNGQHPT

Turning to `CCc1nc(N)nc(N)c1-c1ccc(Cl)cc1` [PYRIMETHAMINE], the AC50 (as a rule, the midpoint of the concentration-response curve, whichever way the signal moves) is more than 10 µM in test [1]; more than 30 µM in test [2]; more than 30 µM in test [3]; 0.649 µM in test [4]; more than 10 µM in test [5]; more than 30 µM in test [6]. For the same compound, the AC50 in test [7] is 2.2 µM; in test [8] it was more than 10 µM; in test [9], 18 µM; in [10], more than 10 µM.
Take `NS(=O)(=O)c1cc2c(cc1Cl)N=C(CSCc1ccccc1)NS2(=O)=O` [BENZTHIAZIDE]: the AC50 was more than 10 µM in [1]; more than 10 µM in [2]; 1.7 µM in [3]; more than 30 µM in test [4]; more than 10 µM in [5]; more than 30 µM in test [6]. In addition, the AC50 in test [7], in test [8], in [9] and in test [10] was more than 10 µM each time.
Turning to `CC/C=C\C/C=C\C/C=C\C/C=C\C/C=C\CCCC(=O)OCC` [ICOSAPENT ETHYL], the AC50 in test [1], in test [2], in test [3], in [4], in test [5] and in test [6] was more than 30 µM in each case. Besides, the AC50 in [7], in test [8], in test [9] and in test [10] was more than 30 µM throughout.
`O=C(c1cc(Cc2n[nH]c(=O)c3ccccc23)ccc1F)N1CCN(C(=O)C2CC2)CC1` [OLAPARIB]: the AC50 in test [1] is more than 30 µM; in test [2] it was more than 30 µM; in test [3], more than 10 µM; in test [4], more than 30 µM; in test [5] it was more than 30 µM; in test [6] it was more than 10 µM. The concentration at half-maximal activity (AC50) in [7] was more than 30 µM; in [8], more than 30 µM; in [9], more than 10 µM; in test [10], more than 10 µM.
Consider `CCOC(=O)C(C)(C)Oc1ccc(Cl)cc1` [CLOFIBRATE], for which the AC50 in test [1] was more than 30 µM; in test [2] it was more than 30 µM; in test [3] it was more than 10 µM; in test [4], more than 30 µM; in [5] it was more than 30 µM; in test [6], more than 10 µM. Besides, the AC50 is more than 30 µM in test [7], more than 30 µM in [8], more than 10 µM in test [9] and more than 10 µM in test [10].
In the case of `CCC(=O)O[C@](Cc1ccccc1)(c1ccccc1)[C@H](C)CN(C)C` [PROPOXYPHENE], the AC50 was more than 30 µM in test [1]; more than 30 µM in test [2]; more than 10 µM in [3]; 1.74 µM in test [4]; more than 30 µM in test [5]; more than 10 µM in test [6]. Besides, the AC50 is more than 10 µM in [7], more than 30 µM in test [8], more than 10 µM in [9] and more than 10 µM in test [10].
Regarding `CC(C)N(CCCCOCC(=O)O)c1cnc(-c2ccccc2)c(-c2ccccc2)n1`, the AC50 in test [1] was 28 µM; in [2], more than 30 µM; in [3], more than 30 µM; in test [4] it was more than 30 µM; in [5], more than 10 µM; in test [6] it was more than 30 µM. In addition, the AC50 in [7] is more than 30 µM; in [8], more than 30 µM; in [9] it was more than 30 µM; in test [10], 7.3 µM.
Consider `c1ccc(C2(N3CCCCC3)CCCCC2)cc1` [PHENCYCLIDINE], for which the AC50 was more than 30 µM in test [1]; more than 30 µM in test [2]; more than 30 µM in test [3]; 12 µM in test [4]; more than 30 µM in test [5]; more than 30 µM in test [6]. In addition, the AC50 was 2.6 µM in test [7], more than 30 µM in test [8], more than 30 µM in test [9] and more than 30 µM in test [10].
In the case of `O=C(NCCO[N+](=O)[O-])c1cccnc1` [NICORANDIL], the AC50 in test [1], in test [2], in test [3], in test [4], in test [5] and in test [6] was more than 30 µM throughout. The AC50 in test [7], in test [8], in [9] and in [10] was more than 30 µM in each case.
In the case of `NC(=O)NC(=O)Cc1ccccc1` [PHENACEMIDE], the concentration at half-maximal activity (AC50) was more than 10 µM in [1]; more than 10 µM in test [2]; more than 10 µM in test [3]; more than 30 µM in [4]; more than 10 µM in test [5]; more than 10 µM in [6]. The AC50 in [7], in [8], in test [9] and in [10] was more than 10 µM in each case.
`CCCN1CCCC[C@H]1C(=O)Nc1c(C)cccc1C` [ROPIVACAINE]: the AC50 in test [1], in test [2], in test [3], in [4], in test [5] and in [6] was more than 30 µM each time. Moreover, the AC50 in [7], in [8], in test [9] and in [10] was more than 30 µM in each case.
`CCc1cc2c(s1)-n1c(C)nnc1CN=C2c1ccccc1Cl` [ETIZOLAM]: the AC50 in test [1], in test [2], in test [3], in test [4], in test [5] and in test [6] was more than 30 µM throughout. In addition, the AC50 in test [7], in test [8], in [9] and in test [10] was more than 30 µM in each case.
